{"source": "ChEMBL document CHEMBL3758125", "about": "(J Med Chem, 2016)", "key": {"Cannabinoid receptor 1 [1]": {"molecular_target": "T1, Cannabinoid receptor 1 (Homo sapiens, UniProt P21554)", "T1 sequence (P21554 whole entry)": "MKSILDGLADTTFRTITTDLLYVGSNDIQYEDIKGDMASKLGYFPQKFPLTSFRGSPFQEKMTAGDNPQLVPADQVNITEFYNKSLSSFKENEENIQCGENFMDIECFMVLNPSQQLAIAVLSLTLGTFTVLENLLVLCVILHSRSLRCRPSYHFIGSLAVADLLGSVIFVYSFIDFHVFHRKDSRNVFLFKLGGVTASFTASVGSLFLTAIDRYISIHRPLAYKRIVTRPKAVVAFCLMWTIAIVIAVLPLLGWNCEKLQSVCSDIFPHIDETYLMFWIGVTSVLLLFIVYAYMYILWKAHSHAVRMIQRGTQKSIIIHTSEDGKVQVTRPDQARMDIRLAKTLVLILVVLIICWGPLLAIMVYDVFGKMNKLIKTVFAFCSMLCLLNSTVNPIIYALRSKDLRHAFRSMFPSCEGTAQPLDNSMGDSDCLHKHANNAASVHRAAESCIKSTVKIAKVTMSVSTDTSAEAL", "test": "Negative allosteric modulator activity at human CB1R expressed in CHO-K1 cells assessed as inhibition of CP55,940-induced beta-arrestin recruitment preincubated for 30 mins followed by CP55,940 addition measured for 90 mins by PathHunter assay relative to control", "type": "cell-based"}, "Cannabinoid receptor 1 [2]": {"molecular_target": "T1, Cannabinoid receptor 1", "test": "Negative allosteric modulator activity at human CB1R expressed in CHO-K1 cells assessed as effect on CP55,940-induced inhibition of forskolin-induced cAMP accumulation preincubated for 30 mins followed by CP55,940 addition measured for 30 mins by HitHunter assay relative to control", "type": "functional, cell-based"}, "Cannabinoid receptor 1 [3]": {"molecular_target": "T1, Cannabinoid receptor 1", "test": "Selectivity index, ratio of EC50 for human CB1R by cAMP assay to EC50 for human CB1R by beta-arrestin recruitment assay", "type": "functional, single protein"}, "[4]": {"molecular_target": "Cannabinoid receptor 1 (Mus musculus) (UniProt P47746)", "sequence (P47746 whole entry)": "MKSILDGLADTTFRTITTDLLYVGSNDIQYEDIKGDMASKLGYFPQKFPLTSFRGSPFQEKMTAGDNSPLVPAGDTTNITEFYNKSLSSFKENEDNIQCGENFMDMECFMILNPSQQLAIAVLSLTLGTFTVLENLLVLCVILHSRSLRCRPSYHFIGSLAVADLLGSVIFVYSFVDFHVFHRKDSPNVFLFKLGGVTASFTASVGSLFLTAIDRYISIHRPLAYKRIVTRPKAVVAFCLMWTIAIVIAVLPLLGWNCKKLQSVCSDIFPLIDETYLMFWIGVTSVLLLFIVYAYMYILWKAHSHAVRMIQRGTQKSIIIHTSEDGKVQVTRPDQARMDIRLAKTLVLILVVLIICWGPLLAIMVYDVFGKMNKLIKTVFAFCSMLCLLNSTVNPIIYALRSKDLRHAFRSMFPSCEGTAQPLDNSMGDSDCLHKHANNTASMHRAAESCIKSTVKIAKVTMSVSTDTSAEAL", "test": "Agonist activity at CB1R in mouse brain membranes assessed as [35S]GTPgammaS binding at 100 nM and 1 uM preincubated for 60 mins prior to [35S]GTPgammaS addition by liquid scintillation spectrometric analysis", "type": "functional, cell membranes", "conditions": "Membrane"}, "[5]": {"molecular_target": "Cannabinoid receptor 1 (Mus musculus) (UniProt P47746)", "test": "Activity at CB1R in mouse brain membranes assessed as inhibition of CP55,940-induced [35S]GTPgammaS binding at 100 nM and 1 uM preincubated for 60 mins prior to [35S]GTPgammaS addition by liquid scintillation spectrometric analysis relative to control", "type": "functional, cell membranes", "conditions": "Membrane"}, "Cannabinoid receptor 1 [6]": {"molecular_target": "T1, Cannabinoid receptor 1", "test": "Positive allosteric modulator activity at human CB1R expressed in CHO cells assessed as enhanced binding of [3H]CP55,940 after 60 mins by liquid scintillation spectrometric analysis", "type": "cell-based"}, "Cannabinoid receptor 1 [7]": {"molecular_target": "T1, Cannabinoid receptor 1", "test": "Inverse agonist activity at human CB1R expressed in CHO-K1 cells assessed as inhibition [35S]GTPgammaS binding up to 1 uM preincubated for 60 mins prior to [35S]GTPgammaS addition by liquid scintillation spectrometric analysis", "type": "functional, cell-based"}, "Cannabinoid receptor 1 [8]": {"molecular_target": "T1, Cannabinoid receptor 1", "test": "Activity at human CB1R expressed in HEK293 cell membranes assessed as reduction in binding of [3H]CP55,940 at 500 nM after 90 to 120 mins by liquid scintillation spectrometric analysis"}, "Cannabinoid receptor 1 [9]": {"molecular_target": "T1, Cannabinoid receptor 1", "test": "Positive allosteric modulator activity at human CB1R expressed in HEK293 cell membranes assessed as enhanced specific binding of [3H]CP55,940 at 500 nM pre-incubated for 60 mins before [3H]CP55,940 addition followed by drug wash-out by liquid scintillation spectrometric-based saturation binding assay"}, "[10]": {"molecular_target": "Cannabinoid receptor 1 (Mus musculus) (UniProt P47746)", "test": "Inverse agonist activity at CB1R in mouse brain membranes assessed as [35S]GTPgammaS binding at 100 nM and 1 uM preincubated for 60 mins prior to [35S]GTPgammaS addition by liquid scintillation spectrometric analysis", "type": "functional, cell membranes", "conditions": "Membrane"}, "Cannabinoid receptor 1 [11]": {"molecular_target": "T1, Cannabinoid receptor 1", "test": "Positive allosteric modulator activity at human CB1R expressed in CHO cells assessed as enhanced binding of [3H]CP55,940 after 60 mins by liquid scintillation spectrometric analysis relative to control", "type": "cell-based"}, "[12]": {"molecular_target": "Cannabinoid receptor 1 (Mus musculus) (UniProt P47746)", "test": "Negative allosteric modulator activity at CB1R in mouse brain membranes assessed as inhibition of CP55,940-induced [35S]GTPgammaS binding at 100 nM and 1 uM preincubated for 60 mins prior to [35S]GTPgammaS addition by liquid scintillation spectrometric analysis", "type": "functional, cell membranes", "conditions": "Membrane"}, "Cannabinoid receptor 1 [13]": {"molecular_target": "T1, Cannabinoid receptor 1", "test": "Negative allosteric modulator activity at human CB1R expressed in CHO-K1 cells assessed as inhibition of CP55,940-induced beta-arrestin recruitment preincubated for 30 mins followed by CP55,940 addition measured for 90 mins by PathHunter assay", "type": "cell-based"}, "Cannabinoid receptor 1 [14]": {"molecular_target": "T1, Cannabinoid receptor 1", "test": "Agonist activity at human CB1R expressed in CHO-K1 cells assessed as inhibition of CP55,940-induced [35S]GTPgammaS binding up to 1 uM preincubated for 60 mins prior to [35S]GTPgammaS addition by liquid scintillation spectrometric analysis", "type": "functional, cell-based"}, "[15]": {"molecular_target": "Cannabinoid receptor 1 (Mus musculus) (UniProt P47746)", "test": "Negative allosteric modulator activity at CB1R in mouse brain membranes assessed as Emax for CP55,940-induced [35S]GTPgammaS binding at 1 uM preincubated for 60 mins prior to [35S]GTPgammaS addition by liquid scintillation spectrometric analysis relative to control (reference value: […]%)", "type": "functional, cell membranes", "conditions": "Membrane"}, "Cannabinoid receptor 1 [16]": {"molecular_target": "T1, Cannabinoid receptor 1", "test": "Positive allosteric modulator activity at human CB1R expressed in HEK293 cell membranes assessed as enhanced binding of [3H]CP55,940 at 500 nM by liquid scintillation spectrometric analysis", "conditions": "TDE = time-dependent effect"}, "Cannabinoid receptor 1 [17]": {"molecular_target": "T1, Cannabinoid receptor 1", "test": "Negative allosteric modulator activity at human CB1R expressed in CHO-K1 cells assessed as effect on CP55,940-induced inhibition of forskolin-induced cAMP accumulation preincubated for 30 mins followed by CP55,940 addition measured for 30 mins by HitHunter assay", "type": "functional, cell-based"}, "[18]": {"molecular_target": "Cannabinoid receptor 1 (Mus musculus) (UniProt P47746)", "conditions": "Brain, Membrane, at 100 nM"}, "[19]": {"molecular_target": "Cannabinoid receptor 1 (Mus musculus) (UniProt P47746)", "test": "Antagonist activity at CB1R in mouse brain membranes assessed as inhibition of CP55,940-induced [35S]GTPgammaS binding at 1 uM preincubated for 60 mins prior to [35S]GTPgammaS addition by liquid scintillation spectrometric analysis", "type": "functional, cell membranes", "conditions": "Membrane"}, "Cannabinoid receptor 1 [20]": {"molecular_target": "T1, Cannabinoid receptor 1", "test": "Inverse agonist activity at human CB1R expressed in CHO-K1 cells assessed as [35S]GTPgammaS binding at 10 uM preincubated for 60 mins prior to [35S]GTPgammaS addition by liquid scintillation spectrometric analysis", "type": "functional, cell-based"}}, "note": "Calls of active or inactive are those of the source. The calls are words filed in the database; no cut-off is given here."}
{"smiles": "CCc1c(C(=O)NCCc2ccc(N3CCCCC3)cc2)[nH]c2ccc(N=[N+]=[N-])cc12", "values": [{"measurement": "Emax", "setting": "Cannabinoid receptor 1 [1]", "result": 105, "unit": "%"}, {"measurement": "Emax", "setting": "Cannabinoid receptor 1 [2]", "result": 87.1, "unit": "%"}, {"measurement": "Ratio EC50", "setting": "Cannabinoid receptor 1 [3]", "result": 14}]}
{"smiles": "CCc1c(C(=O)NCCc2ccc(N3CCCCC3)cc2)[nH]c2ccc(N=C=S)cc12", "values": [{"measurement": "Activity", "setting": "[4]", "result": "inactive"}, {"measurement": "Emax", "setting": "[5]", "result": 87.8, "unit": "%"}, {"measurement": "EC50", "setting": "Cannabinoid receptor 1 [6]", "result": 0.0196, "unit": "µM"}, {"measurement": "Activity", "setting": "Cannabinoid receptor 1 [7]", "result": "inactive"}, {"measurement": "Emax", "setting": "Cannabinoid receptor 1 [1]", "result": 103, "unit": "%"}, {"measurement": "inhibition", "setting": "Cannabinoid receptor 1 [8]", "result": "Active"}, {"measurement": "fold change (FC)", "setting": "Cannabinoid receptor 1 [9]", "result": 2.25}, {"measurement": "Emax", "setting": "Cannabinoid receptor 1 [2]", "result": 111, "unit": "%"}, {"measurement": "Activity", "setting": "[10]", "result": "inactive"}, {"measurement": "Emax", "setting": "Cannabinoid receptor 1 [11]", "result": 116, "unit": "%"}, {"measurement": "inhibition", "setting": "[12]", "result": "Dose-dependent effect"}, {"measurement": "EC50", "setting": "Cannabinoid receptor 1 [13]", "result": 0.00209, "unit": "µM"}, {"measurement": "Activity", "setting": "Cannabinoid receptor 1 [14]", "result": "inactive"}, {"measurement": "Emax", "setting": "[15]", "result": 11.2, "unit": "%"}, {"measurement": "Activity", "setting": "Cannabinoid receptor 1 [16]", "result": "tde"}, {"measurement": "EC50", "setting": "Cannabinoid receptor 1 [17]", "result": 0.174, "unit": "µM"}, {"measurement": "Emax", "setting": "[18]", "result": 71.7, "unit": "%"}, {"measurement": "Ratio EC50", "setting": "Cannabinoid receptor 1 [3]", "result": 14}]}
{"smiles": "[N-]=[N+]=NCCc1c(C(=O)NCCc2ccc(N3CCCCC3)cc2)[nH]c2ccc(Cl)cc12", "values": [{"measurement": "Emax", "setting": "Cannabinoid receptor 1 [1]", "result": 105, "unit": "%"}, {"measurement": "Emax", "setting": "Cannabinoid receptor 1 [2]", "result": 96.8, "unit": "%"}, {"measurement": "EC50", "setting": "Cannabinoid receptor 1 [17]", "result": 1.12, "unit": "µM"}, {"measurement": "Ratio EC50", "setting": "Cannabinoid receptor 1 [3]", "result": 14}]}
{"smiles": "CCc1c(C(=O)NCCc2ccc(N3CCCCC3)cc2)[nH]c2ccc(Cl)cc12", "values": [{"measurement": "inhibition", "setting": "[19]", "result": "Active"}, {"measurement": "EC50", "setting": "Cannabinoid receptor 1 [6]", "result": 0.083, "unit": "µM"}, {"measurement": "Emax", "setting": "Cannabinoid receptor 1 [1]", "result": 105, "unit": "%"}, {"measurement": "Activity", "setting": "Cannabinoid receptor 1 [9]", "result": "inactive"}, {"measurement": "Emax", "setting": "Cannabinoid receptor 1 [2]", "result": 78.1, "unit": "%"}, {"measurement": "Emax", "setting": "Cannabinoid receptor 1 [11]", "result": 109, "unit": "%"}, {"measurement": "EC50", "setting": "Cannabinoid receptor 1 [13]", "result": 0.00905, "unit": "µM"}, {"measurement": "Emax", "setting": "[15]", "result": 32.4, "unit": "%"}, {"measurement": "EC50", "setting": "Cannabinoid receptor 1 [17]", "result": 0.324, "unit": "µM"}, {"measurement": "Activity", "setting": "Cannabinoid receptor 1 [20]", "result": "Active"}]}
{"smiles": "O=C(NCCc1ccc(N2CCCCC2)cc1)c1[nH]c2ccc(Cl)cc2c1CCN=C=S", "values": [{"measurement": "Emax", "setting": "Cannabinoid receptor 1 [1]", "result": 107, "unit": "%"}, {"measurement": "Emax", "setting": "Cannabinoid receptor 1 [2]", "result": -8.84, "unit": "%"}, {"measurement": "EC50", "setting": "Cannabinoid receptor 1 [13]", "result": 0.209, "unit": "µM"}, {"measurement": "EC50", "setting": "Cannabinoid receptor 1 [17]", "result": "> 10", "unit": "µM"}, {"measurement": "Ratio EC50", "setting": "Cannabinoid receptor 1 [3]", "result": 14}]}
{"smiles": "O=C(Nc1ccc(C(=O)c2ccccc2)cc1)Nc1cccc(-c2cccc(N3CCCC3)n2)c1", "values": [{"measurement": "Emax", "setting": "Cannabinoid receptor 1 [1]", "result": 77.4, "unit": "%"}, {"measurement": "Emax", "setting": "Cannabinoid receptor 1 [2]", "result": 28.1, "unit": "%"}, {"measurement": "EC50", "setting": "Cannabinoid receptor 1 [13]", "result": 0.683, "unit": "µM"}, {"measurement": "EC50", "setting": "Cannabinoid receptor 1 [17]", "result": "> 10", "unit": "µM"}, {"measurement": "Ratio EC50", "setting": "Cannabinoid receptor 1 [3]", "result": 3}]}
{"smiles": "CCCCCCC(C)(C)c1ccc([C@@H]2C[C@H](O)CC[C@H]2CCCO)c(O)c1", "values": [{"measurement": "Emax", "setting": "Cannabinoid receptor 1 [11]", "result": -90.1, "unit": "%"}]}
{"smiles": "O=C(Nc1ccc(N=C=S)cc1)Nc1cccc(-c2cccc(N3CCCC3)n2)c1", "values": [{"measurement": "Emax", "setting": "Cannabinoid receptor 1 [1]", "result": 106, "unit": "%"}, {"measurement": "Emax", "setting": "Cannabinoid receptor 1 [2]", "result": 78.2, "unit": "%"}, {"measurement": "EC50", "setting": "Cannabinoid receptor 1 [13]", "result": 0.0429, "unit": "µM"}, {"measurement": "Ratio EC50", "setting": "Cannabinoid receptor 1 [3]", "result": 3}]}
{"smiles": "[N-]=[N+]=Nc1ccc(NC(=O)Nc2cccc(-c3cccc(N4CCCC4)n3)c2)cc1", "values": [{"measurement": "Emax", "setting": "Cannabinoid receptor 1 [1]", "result": 105, "unit": "%"}, {"measurement": "Emax", "setting": "Cannabinoid receptor 1 [2]", "result": 103, "unit": "%"}, {"measurement": "EC50", "setting": "Cannabinoid receptor 1 [13]", "result": 0.0282, "unit": "µM"}, {"measurement": "EC50", "setting": "Cannabinoid receptor 1 [17]", "result": 0.166, "unit": "µM"}, {"measurement": "Ratio EC50", "setting": "Cannabinoid receptor 1 [3]", "result": 3}]}
{"smiles": "O=C(Nc1ccc(Cl)cc1)Nc1cccc(-c2cccc(N3CCCC3)n2)c1", "values": [{"measurement": "Emax", "setting": "Cannabinoid receptor 1 [1]", "result": 106, "unit": "%"}, {"measurement": "Emax", "setting": "Cannabinoid receptor 1 [2]", "result": 115, "unit": "%"}]}
